The target of this experiment is Coagulation factor XI (Homo sapiens, UniProt P03951). In words: Measurement of FXIa Inhibition: The factor XIa inhibition of the substances according to the invention is determined using a biochemical test system which utilizes the reaction of a peptidic factor XIa substrate to determine the enzymatic activity of human factor XIa. Here, factor XIa cleaves from the peptic factor XIa substrate the C-terminal aminomethylcoumarin (AMC), the fluorescence of which is measured. The determinations are carried out in microtitre plates.Test substances are dissolved in dimethyl sulphoxide and serially diluted in dimethyl sulphoxide (3000 μM to 0.0078 μM; resulting final concentrations in the test: 50 μM to 0.00013 μM). 1 μl of the diluted substance solutions is placed into each of the wells of white microtitre plates from Greiner (384 wells). 20 μl of assay buffer (50 mM of Tris/HCl pH 7.4; 100 mM of sodium chloride; 5 mM of calcium chloride; 0.1% of bovine serum albumin) and 20 μl of factor XIa from Kordia (0.45 nM in assay buffer) are then added successively. After […] of incubation, the enzyme reaction is started by addition of 20 μl of the factor XIa substrate Boc-Glu(OBzl)-Ala-Arg-AMC dissolved in assay buffer (10 μM in assay buffer) from Bachem, the mixture is incubated at room temperature (22° C.) for 30 min and fluorescence is then measured (excitation: 360 nm, emission: 460 nm). […].
Coagulation factor XI, sequence (P03951 19-387 limits assumed): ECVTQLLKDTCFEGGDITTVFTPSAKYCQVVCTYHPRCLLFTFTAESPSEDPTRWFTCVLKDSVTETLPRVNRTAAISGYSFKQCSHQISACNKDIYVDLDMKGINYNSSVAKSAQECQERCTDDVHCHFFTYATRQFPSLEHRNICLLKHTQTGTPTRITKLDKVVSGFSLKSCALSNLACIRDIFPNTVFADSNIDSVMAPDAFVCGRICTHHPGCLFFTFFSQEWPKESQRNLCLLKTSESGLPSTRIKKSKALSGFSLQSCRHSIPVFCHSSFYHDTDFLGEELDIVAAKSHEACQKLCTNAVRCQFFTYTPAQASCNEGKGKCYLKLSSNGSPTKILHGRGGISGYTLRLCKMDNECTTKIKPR
Coagulation factor XI, sequence (P03951 388-625 limits assumed): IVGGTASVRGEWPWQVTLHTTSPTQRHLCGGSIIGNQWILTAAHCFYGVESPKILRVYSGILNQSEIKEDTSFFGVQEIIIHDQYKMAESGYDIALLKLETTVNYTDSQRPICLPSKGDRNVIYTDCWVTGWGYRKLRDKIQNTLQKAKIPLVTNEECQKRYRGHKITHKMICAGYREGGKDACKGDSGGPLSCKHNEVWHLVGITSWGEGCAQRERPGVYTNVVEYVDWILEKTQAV

By IC50 is commonly meant the midpoint of a concentration-inhibition curve. Turning to `CNC(=O)c1ccc(NC(=O)C(Cc2cnco2)n2cc(OC)c(-c3cc(Cl)ccc3C#N)cc2=O)cn1` (racemic), the IC50 worked out at 12 nM.

These data come from ChEMBL document CHEMBL5726062, “Substituted oxopyridine derivatives” (2019).
